Source: patent US8906889B2, “C-3 cycloalkenyl triterpenoids with HIV maturation inhibitory activity” (priority 2012, dated 2014)
pEC50: −log10 of the molar value.

What follows are compounds tested on recombinant NL4-3 virus (Renilla luciferase, Gag P373S) (assay: HIV cell culture assay (luciferase reporter, MT-2 cells)). Conditions: Renilla, NL43, MT-2 cells infected for 4-5 days with NLRluc recombinants; luciferase activity.
Type: cell-based
How it was run: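 MT-2 cells were infected for 4–5 days with NL4-3 carrying Renilla luciferase in place of part of nef and the Gag P373S change, in the presence of serially diluted inhibitor. Antiviral activity was quantified as luciferase signal from Dual Luciferase reagent.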

How did the pEC50 turn out when `C=C(C)[C@@H]1CC[C@]2(NCCN3CCS(=O)(=O)CC3)CC[C@]3(C)[C@H](CC[C@@H]4[C@@]5(C)CC=C(C6=CCC(Cl)(C(=O)O)CC6)C(C)(C)[C@@H]5CC[C@]43C)[C@@H]12` (stereo partly drawn) [Example A7, 1-chloro-4-((1R,3aS,5aR,5bR,7aR,11aS,11bR,13aR,13bR)-3a-((2-(1,1-dioxidothiomorpholino)ethyl)amino)-5a,5b,8,8,11a-pentamethyl-1-(prop-1-en-2-yl)-2,3,3a,4,5,5a,5b,6,7,7a,8,11,11a,11b,12,13,13a,13b-octadecahydro-1H-cyclopenta[a]chrysen-9-yl)cyclohex-3-enecarboxylic acid] was run?
The pEC50 was 8.54.

With `C=C(C)[C@@H]1CC[C@]2(NCCN3CCC(S(C)(=O)=O)CC3)CC[C@]3(C)[C@H](CC[C@@H]4[C@@]5(C)CC=C(C6=CCC(F)(C(=O)O)CC6)C(C)(C)[C@@H]5CC[C@]43C)[C@@H]12` (stereo partly drawn) [Example A9, 1-fluoro-4-((1R,3aS,5aR,5bR,7aR,11aS,11bR,13aR,13bR)-5a,5b,8,8,11a-pentamethyl-3a-((2-(4-(methylsulfonyl)piperidin-1-yl)ethyl)amino)-1-(prop-1-en-2-yl)-2,3,3a,4,5,5a,5b,6,7,7a,8,11,11a,11b,12,13,13a,13b-octadecahydro-1H-cyclopenta[a]chrysen-9-yl)cyclohex-3-enecarboxylic acid] as the compound, how does the pEC50 read?
Its pEC50 is 8.55.

With `C=C(C)[C@@H]1CC[C@]2(NCCN3CCS(=O)(=O)CC3)CC[C@]3(C)[C@H](CC[C@@H]4[C@@]5(C)CC=C(C6=CCC(CCO)(C(=O)O)CC6)C(C)(C)[C@@H]5CC[C@]43C)[C@@H]12` (stereo partly drawn) [Example A10, 4-((1R,3aS,5aR,5bR,7aR,11aS,11bR,13aR,13bR)-3a-((2-(1,1-dioxidothiomorpholino)ethyl)amino)-5a,5b,8,8,11a-pentamethyl-1-(prop-1-en-2-yl)-2,3,3a,4,5,5a,5b,6,7,7a,8,11,11a,11b,12,13,13a,13b-octadecahydro-1H-cyclopenta[a]chrysen-9-yl)-1-(2-hydroxyethyl)cyclohex-3-enecarboxylic acid] as the compound, how does the pEC50 read?
Its pEC50 is 8.31.

How did the pEC50 turn out when `C=C(C)[C@@H]1CC[C@]2(NCCN3CCS(=O)(=O)CC3)CC[C@]3(C)[C@H](CC[C@@H]4[C@@]5(C)CC=C(C6=CCC(CO)(C(=O)O)CC6)C(C)(C)[C@@H]5CC[C@]43C)[C@@H]12` (stereo partly drawn) [Example A12, 4-((1R,3aS,5aR,5bR,7aR,11aS,11bR,13aR,13bR)-3a-((2-(1,1-dioxidothiomorpholino)ethyl)amino)-5a,5b,8,8,11a-pentamethyl-1-(prop-1-en-2-yl)-2,3,3a,4,5,5a,5b,6,7,7a,8,11,11a,11b,12,13,13a,13b-octadecahydro-1H-cyclopenta[a]chrysen-9-yl)-1-(hydroxymethyl)cyclohex-3-enecarboxylic acid] was run?
The pEC50 was 8.61.

With `C=C(C)[C@@H]1CC[C@]2(CNCCCN3CCS(=O)(=O)CC3)CC[C@]3(C)[C@H](CC[C@@H]4[C@@]5(C)CC=C(C6=CC7(C6)CC(C(=O)O)(C(=O)O)C7)C(C)(C)[C@@H]5CC[C@]43C)[C@@H]12` [Example A14, 6-((1R,3aS,5aR,5bR,7aR,11aS,11bR,13aR,13bR)-3a-(((3-(1,1-dioxidothiomorpholino)propyl)amino)methyl)-5a,5b,8,8,11a-pentamethyl-1-(prop-1-en-2-yl)-2,3,3a,4,5,5a,5b,6,7,7a,8,11,11a,11b,12,13,13a,13b-octadecahydro-1H-cyclopenta[a]chrysen-9-yl)spiro[3.3]hept-5-ene-2,2-dicarboxylic acid] as the compound, how does the pEC50 read?
The pEC50 was 6.72.

How did the pEC50 turn out when `C=C(C)[C@@H]1CC[C@]2(NCCN3CCS(=O)(=O)CC3)CC[C@]3(C)[C@H](CC[C@@H]4[C@@]5(C)CC=C(C6=CC(C)=C(C(=O)O)CC6)C(C)(C)[C@@H]5CC[C@]43C)[C@@H]12` [Example A16, 4-((1R,3aS,5aR,5bR,7aR,11aS,11bR,13aR,13bR)-3a-((2-(1,1-dioxidothiomorpholino)ethyl)amino)-5a,5b,8,8,11a-pentamethyl-1-(prop-1-en-2-yl)-2,3,3a,4,5,5a,5b,6,7,7a,8,11,11a,11b,12,13,13a,13b-octadecahydro-1H-cyclopenta[a]chrysen-9-yl)-2-methylcyclohexa-1,3-dienecarboxylic acid] was run?
Its pEC50 is 8.65.

With `C=C(C)[C@@H]1CC[C@]2(NCCN3CCS(=O)(=O)CC3)CC[C@]3(C)[C@H](CC[C@@H]4[C@@]5(C)CC=C(C6=COC(C)(C(=O)O)OC6)C(C)(C)[C@@H]5CC[C@]43C)[C@@H]12` (stereo partly drawn) [Example A17, 5-((1R,3aS,5aR,5bR,7aR,11aS,11bR,13aR,13bR)-3a-((2-(1,1-dioxidothiomorpholino)ethyl)amino)-5a,5b,8,8,11a-pentamethyl-1-(prop-1-en-2-yl)-2,3,3a,4,5,5a,5b,6,7,7a,8,11,11a,11b,12,13,13a,13b-octadecahydro-1H-cyclopenta[a]chrysen-9-yl)-2-methyl-4H-1,3-dioxine-2-carboxylic acid] as the compound, how does the pEC50 read?
Its pEC50 is 6.49.

With `C=C(C)[C@@H]1CC[C@]2(NCCN3CCS(=O)(=O)CC3)CC[C@]3(C)[C@H](CC[C@@H]4[C@@]5(C)CC=C(C6=CC(C(=O)O)CC6)C(C)(C)[C@@H]5CC[C@]43C)[C@@H]12` (stereo partly drawn) [Example A21, 3-((1R,3aS,5aR,5bR,7aR,11aS,11bR,13aR,13bR)-3a-((2-(1,1-dioxidothiomorpholino)ethyl)amino)-5a,5b,8,8,11a-pentamethyl-1-(prop-1-en-2-yl)-2,3,3a,4,5,5a,5b,6,7,7a,8,11,11a,11b,12,13,13a,13b-octadecahydro-1H-cyclopenta[a]chrysen-9-yl)cyclopent-2-enecarboxylic acid] as the compound, how does the pEC50 read?
Its pEC50 is 8.56.

How did the pEC50 turn out when `C=C(C)[C@@H]1CC[C@]2(NCCN3CCS(=O)(=O)CC3)CC[C@]3(C)[C@H](CC[C@@H]4[C@@]5(C)CC=C(C6=CCC(C(=O)O)C6)C(C)(C)[C@@H]5CC[C@]43C)[C@@H]12` (stereo partly drawn) [Example A22, 3-((1R,3aS,5aR,5bR,7aR,11aS,11bR,13aR,13bR)-3a-((2-(1,1-dioxidothiomorpholino)ethyl)amino)-5a,5b,8,8,11a-pentamethyl-1-(prop-1-en-2-yl)-2,3,3a,4,5,5a,5b,6,7,7a,8,11,11a,11b,12,13,13a,13b-octadecahydro-1H-cyclopenta[a]chrysen-9-yl)cyclopent-3-enecarboxylic acid] was run?
The pEC50 was 8.45.

How did the pEC50 turn out when `C=C(C)[C@@H]1CC[C@]2(NCCN3CCS(=O)(=O)CC3)CC[C@]3(C)[C@H](CC[C@@H]4[C@@]5(C)CC=C(C6=CCC(CC(=O)O)CC6)C(C)(C)[C@@H]5CC[C@]43C)[C@@H]12` (stereo partly drawn) [Example A25, 2-(4-((1R,3aS,5aR,5bR,7aR,11aS,11bR,13aR,13bR)-3a-((2-(1,1-dioxidothiomorpholino)ethyl)amino)-5a,5b,8,8,11a-pentamethyl-1-(prop-1-en-2-yl)-2,3,3a,4,5,5a,5b,6,7,7a,8,11,11a,11b,12,13,13a,13b-octadecahydro-1H-cyclopenta[a]chrysen-9-yl)cyclohex-3-en-1-yl)acetic acid] was run?
Its pEC50 is 8.88.

With `C=C(C)[C@@H]1CC[C@]2(NCCN3CCS(=O)(=O)CC3)CC[C@]3(C)[C@H](CC[C@@H]4[C@@]5(C)CC=C(C6=CC=C(C(=O)O)CC6)C(C)(C)[C@@H]5CC[C@]43C)[C@@H]12` [Example A29, 4-((1R,3aS,5aR,5bR,7aR,11aS,11bR,13aR,13bR)-3a-((2-(1,1-dioxidothiomorpholino)ethyl)amino)-5a,5b,8,8,11a-pentamethyl-1-(prop-1-en-2-yl)-2,3,3a,4,5,5a,5b,6,7,7a,8,11,11a,11b,12,13,13a,13b-octadecahydro-1H-cyclopenta[a]chrysen-9-yl)cyclohexa-1,3-dienecarboxylic acid] as the compound, how does the pEC50 read?
Its pEC50 is 8.86.

With `C=C(C)[C@@H]1CC[C@]2(NCCS(=O)(=O)c3ccccc3)CC[C@]3(C)[C@H](CC[C@@H]4[C@@]5(C)CC=C(C6=CC=C(C(=O)O)CC6)C(C)(C)[C@@H]5CC[C@]43C)[C@@H]12` [Example A30, 4-((1R,3aS,5aR,5bR,7aR,11aS,11bR,13aR,13bR)-5a,5b,8,8,11a-pentamethyl-3a-((2-(phenylsulfonyl)ethyl)amino)-1-(prop-1-en-2-yl)-2,3,3a,4,5,5a,5b,6,7,7a,8,11,11a,11b,12,13,13a,13b-octadecahydro-1H-cyclopenta[a]chrysen-9-yl)cyclohexa-1,3-dienecarboxylic acid] as the compound, how does the pEC50 read?
The pEC50 was 7.05.

`C=C(C)[C@@H]1CC[C@]2(NCCN3CCS(=O)(=O)CC3)CC[C@]3(C)[C@H](CC[C@@H]4[C@@]5(C)CC=C(C6=CCC(NC(C)=O)(C(=O)O)CC6)C(C)(C)[C@@H]5CC[C@]43C)[C@@H]12` (stereo partly drawn) [Example A31, 1-acetamido-4-((1R,3aS,5aR,5bR,7aR,11aS,11bR,13aR,13bR)-3a-((2-(1,1-dioxidothiomorpholino)ethyl)amino)-5a,5b,8,8,11a-pentamethyl-1-(prop-1-en-2-yl)-2,3,3a,4,5,5a,5b,6,7,7a,8,11,11a,11b,12,13,13a,13b-octadecahydro-1H-cyclopenta[a]chrysen-9-yl)cyclohex-3-enecarboxylic acid] was tested. Which pEC50 did it give?
Its pEC50 is 8.00.
